The source of these data is patent US20240166591A1, “Pharmaceutical Products Based on Cannabinoid Acid Esters” (priority 2021, published 2024).

In series [1] the test system is SK-BR-3 cancer cell line (human breast cancer cell line). In words: MTT cytotoxicity assay, SK-BR-3 cancer cell line. The class given is cell-based. The note with it: for pEC50: cancer cell line SKBR3. An excerpt:
(§1) The cytotoxic activity of CBDA methyl esters, CBCA CBGA and THCA was studied by the in vitro MTT colorimetric process (Mosmann, T. et al. J. Immunol. Methods. 1983; 65: 55-63). This method, which is widely used to measure cellular metabolic activity as an indicator of cell viability, division and cytotoxicity, is based on the reduction of a yellow salt of tetrazole ((3-(4,5-dimethylthiazol-2-yl)-2). 5-diphenyltetrazolium bromide or MTT) in violet formazan crystals from metabolically active cells.
(§2) Briefly for this cytotoxicity test, the SK-BR-3 cancer cell line (human breast cancer cell line), the MCF-7 cancer cell line (human breast cancer cell line), and the A2058 cancer cell line […]) and the cancer line SKMEL28 (melanoma line). All cell lines were tested at 20% v/v O2, in the presence of 10% FBS after 48 h or 72 h of incubation.

Series [2] has as its system breast cancer cells MDA-MB-231. The note with it: cited from earlier work.
The subject of a further series is cyclooxygenase-2. As to conditions: MDA-MB-231; cited from earlier work.
A further series relates to normal MCF10A cells. As to the kind of experiment: Cytotoxic activity in normal MCF10A cells compared to SK-BR-3. Format: cell-based. The note with it: FIG. 3.
Text: FIG. 3. Comparison of the cytotoxic activity of CBDA methyl ester in SK-BR-3 cancer cells compared to the cytotoxic activity in normal MCF10A cells.
as §1

For series [3], the system named is A2058 cancer cell line (melanoma). As to the kind of experiment: MTT cytotoxicity assay, A2058 cancer cell line. Format: cell-based.
Text: as §1, §2
In general terms: Tetrazolium dyes change colour on reduction, which living cells bring about.

For another series, the system named is SKMEL28 (melanoma line). In words: MTT cytotoxicity assay, SKMEL28 cancer line. The class given is cell-based.
Text: as §1, §2

For series [4], the system named is MCF-7 cancer cell line (human breast cancer cell line). In words: MTT cytotoxicity assay, MCF-7 cancer cell line. Format: cell-based. As to conditions: MCF7 cell line.
Text: as §1, §2

Where [5] appears, read: MTT, incubation time not stated (48 h or 72 h).

pEC50: −log10 of the molar value.

For the compound `CCCCCc1cc2c(c(O)c1C(=O)OC)C=CC(C)(CCC=C(C)C)O2` (stereo not shown) [CBCA-Me, CBCA methyl ester], the pEC50 in series [1] (setting [5]) was 4.46.

For `C=C(C)[C@@H]1CCC(C)=C[C@H]1c1c(O)cc(CCCCC)c(C(=O)O)c1O` [CBDA, Cannabidiolic acid], the cell migration result in series [2] was “inhibit cell migration”. Further, the “expression of cyclooxygenase-2” value in the series on cyclooxygenase-2 was “enhance the expression of cyclooxygenase-2”.

In the case of `C=C(C)[C@@H]1CCC(C)=C[C@H]1c1c(O)cc(CCCCC)c(C(=O)OC)c1O` [CBDA-Me, CBDA methyl ester], the negative logarithm of the EC50 (pEC50) in series [1] (setting [5]) is 4.51. The “effect on SK-BR-3 cancer cells compared with normal MCF10A cells” value with normal MCF10A cells is listed as “much stronger effect on SK-BR-3 cancer cells than normal MCF10A cells”.

In turn, `CCCCCc1cc(O)c(C/C=C(\C)CCC=C(C)C)c(O)c1` [CBG, cannabigerol, reference compound] gave a negative logarithm of the EC50 (pEC50) in series [1] (Homo sapiens, SK-BR-3, 72 h) of 4.41.

Take `CCCCCc1cc(O)c(C/C=C(\C)CCC=C(C)C)c(O)c1C(=O)OC` [CBGA-Me, CBGA methyl ester]: in series [1] (SKBR3, 48 h and 72 h (FIGS. 1 and 2)), the “relative cytotoxic activity among the esters” value is listed as “greatest activity”. Further, the “activity compared with the corresponding decarboxylated product” value in series [1] (SKBR3, 72 h for CBGA methyl ester vs CBG) was “almost twice as active as CBG”. Also, the negative-log EC50 (pEC50) in series [1] (setting [5]) was 4.69; in series [3] it was 4.77; in the series with SKMEL28 (melanoma line), 4.77; in series [4], 4.74.

The compound `CCCCCc1cc2c(c(O)c1C(=O)OC)C1C=C(C)CCC1C(C)(C)O2` (stereo not shown) [THCA-Me, THCA methyl ester] had a pEC50 in series [1] (setting [5]) of 4.44.

In general, pEC50 refers to the EC50 on a negative log10 scale, so that one unit is a factor of ten. The low end stands for a large EC50, the high end for a small EC50.
